According to patent US8575213B2, “Pyrethrinoid-type esters as pesticides” (Sumitomo Chemical Company, Limited, priority 2010, dated 2013):

System: houseflies
Test: Knockdown test on houseflies, oil solution sprayed in a 70 cm cubic chamber
Assay type: in vivo
Conditions: 0.00625% (w/v) oil solution, 0.7 ml sprayed in cubic chamber of 70 cm side length, ten houseflies (5 of each male and female), repeated twice
Experimental: Each of the present invention compounds (1) and (2) (0.00625 parts) produced in the aforementioned Production
Examples was dissolved in 10 parts of dichloromethane and the resulting solution was mixed with 89.99375 parts of an isoparafin solvent (Isper M, registered trademark of Exxon Chemical Company) to prepare a 0.00625% (w/v) oil solution.
Ten houseflies (5 of each male and female) were released in a cubic chamber having a side length of 70 cm and then 0.7 ml of the present invention compound (1) was sprayed through a small window at an inlet of the chamber using a spray gun (spray pressure: 0.9 kg/cm^2). The number of knockdowned houseflies was counted after a given time had passed since completion of spraying, and a knockdown rate (KD rate) was determined (repeated twice). The test was carried out in the same manner, except that the present invention compound (2) was used in place of the present invention compound (1), and then a knockdown rate was determined after a given time (repeated twice).

SMILES	Knockdown rate (%) after 7 minutes
C=C/C(C#N)=C/[C@@H]1[C@@H](C(=O)OCc2c(F)c(F)c(COC)c(F)c2F)C1(C)C [Present invention Compound (1), 4-methoxymethyl-2,3,5,6-tetrafluorobenzyl=(1R)-trans-3-[(1Z)-2-cyano-1,3-butadienyl]-2,2-dimethylcyclopropane carboxylate]	100%
C/C=C/C(C#N)=C/[C@@H]1[C@@H](C(=O)OCc2c(F)c(F)c(COC)c(F)c2F)C1(C)C [Present invention compound (2), 4-methoxymethyl-2,3,5,6-tetrafluorobenzyl=(1R)-trans-3-[(1Z,3E)-2-cyano-1,3-pentadienyl]-2,2-dimethylcyclopropane carboxylate]	100%
